Data taken from publication doi:10.1101/2025.09.04.674342, “Tandem association of CLOCK:BMAL1 complexes on DNA enables recruitment of CBP/p300 through multivalent interactions” (bioRxiv, 2025).
No end group written: not given here.

How the values were obtained:
CBP KIX [1] = target: T1, CBP KIX (Mus musculus, UniProt P45481); assay: Fluorescence polarization competition assay, CBP KIX:TAD WT titrated with KG-501; format: binding
T1 construct: mouse CBP (UniProt P45481) KIX (residues 586–672); made in house; host or cells: Rosetta (DE3) E. coli
Experimental: TAMRA fluorescent probe covalently attached to the N-terminus; the C-terminus of the Δswitch peptide was amidated, while the others were left as a free carboxyl group. Equilibrium binding assays (Fig. 5b) with CBP KIX, TAZ1, and TAZ2 and competition assay with CBP KIX:TAD WT titrated with KG-501 (Fig. 5i) were performed in 10 mM MES pH 6.5, 50 mM NaCl and 0.05% (v/v) Tween-20. Concentrated stocks of BMAL1 TAD probes were stored between 15–200 μM at −70°C and diluted in assay buffer to 50 nM alone (binding assays) or to 10 nM bound to 2 μM CBP KIX (competition assay) and in the presence of increasing concentrations of KG-501. Plates were incubated at room temperature for 10–20 minutes prior to analysis. Binding was monitored by changes in fluorescence polarization with an EnVision 2103 multilabel plate reader (Perkin Elmer) with excitation at 531 nm and emission at 595 nm. The Hill coefficient and equilibrium binding dissociation constant (KD) were calculated by fitting the dose-dependent change in millipolarization (Δmp) to a one-site specific binding model (binding assays) or an [inhibitor] vs. response (three parameters) model (competition assay) in Prism (GraphPad). Data shown for equilibrium binding assays are from a representative experiment (n=4 replicates) of three independent assays (Fig. 5b). […]

[2] = tested on: CREB-induced Per1-luc activation; assay: Per1-luc reporter in HEK293T cells after forskolin stimulation; format: cell-based, human; settings: compounds 16 hours, 10 μM forskolin 2 hours before harvest, n = 3, Fig. 5g
Experimental: HEK293T cells were purchased from ATCC (cat. #CRL-3216) were cultured in 10% DMEM (i.e. 10% (v/v) FBS) and 1X penicillin-streptomycin (Thermo Fisher) at 37°C in an incubator humidified with 5% CO2. Forskolin (CAS 66575-29-9, cat. #F3917, Sigma Aldrich), KG-501/naphthol-AS-E-phosphate (CAS 18228-17-6, cat. #70485, Sigma Aldrich), XX-650–23 (CAS 117739-40-9, cat. #AOB31725, Aobious), and 666–15 (CAS 1433286-70-4, cat. #AMBH97F07B56, Sigma Aldrich) were stored as recommended by the manufacturer and assessed by 1D NMR before use.
For Per1-luc reporter assays with inhibitors, 48-well plates with HEK293T cells were transfected with LT-1 (Mirus) and the following plasmids in duplicate: 5 ng pGL3 Per1-luciferase[8] and 395 ng empty pcDNA4 vector; for CLOCK:BMAL1 activity, 5 ng pGL3 Per1-luciferase, 100 ng pSG5 Clock, 100 ng pSG5 Bmal1, and 195 ng empty pcDNA4 vector. Cells were treated with compounds as indicated or 1% DMSO 24 hours after transfection for 16 hours prior to harvesting. For forskolin treatment, 10 μM forskolin was added 2 hours prior to harvesting. Cells were lysed in Passive Lysis Buffer ([…]) according to the protocol and luciferase activity was measured with Bright-Glo reagent ([…]) on an EnVision plate reader (Perkin Elmer). Each reporter assay was repeated at least three times.

CREB = tested on: CREB; design: method as in PMID 19810079, PMID 27211267; settings: cited from earlier work
[3] = cited from earlier work
WT CBP KIX = assay: Isothermal titration calorimetry, CBP KIX WT with BMAL1 TAD; format: binding, mouse
Experimental: (§1) ITC measurements were obtained as previously described. Briefly, proteins were extensively dialyzed at 4°C in 10 mM MES pH 6.5, 50 mM NaCl using a 2 kDa molecular weight cutoff filter dialysis tubing (Spectrum Labs) prior to collecting ITC data. ITC was performed on a MicroCal VP-ITC calorimeter at 25°C with a stir speed of 177 rpm, reference power of 10 μCal/sec and 10 μL injection sizes. Protein ratios for the cell and syringe for the ITC assays (3 independent runs for each complex) were 220–230 μM CBP KIX WT or 3mut titrated into 20–25 μM BMAL1 TAD WT or L606A/L607A as indicated (stoichiometry (n) = 0.8–1.1). All data were best fit by a one-site binding model using Origin software.

[4] = tested on: 3mut CBP KIX (Y650A, A654Q, Y658A); assay: Isothermal titration calorimetry, 3mut CBP KIX with BMAL1 TAD; format: binding, mouse; settings: same conditions as WT KIX; Fig. 4b
Experimental: as §1

[5] = tested on: 3mut CBP KIX (Y650A, A654Q, Y658A); assay: 15N-1H HSQC NMR titration of 15N BMAL1 TAD with 3mut CBP KIX; format: binding, mouse; settings: versus WT KIX
Experimental: (§2) NMR experiments were conducted on a Varian INOVA 600-MHz spectrometer equipped with ^1H, ^13C, ^15N triple resonance, Z-axis pulsed field gradient cryoprobe. All NMR data were collected at 25°C. NMR data were processed using NMRPipe/NMRDraw[79]. ^15N-^1H HSQC spectra CBP KIX were performed in 330 μL volume in a Shigemi tube with 100 μM ^15N CBP KIX in NMR buffer (10 mM MES pH 6.5, 50 mM NaCl) and 10% (v/v) D2O in the presence of stepwise additions of concentrated stocks of BMAL1 TAD or truncated peptides. ^15N-^1H HSQC spectra of BMAL1 TAD WT or L606A/L607A were performed in 330 μL volume in a Shigemi tube with 100 μM ^15N BMAL1 TAD in NMR buffer (10 mM MES pH 6.5, 50 mM NaCl) and 10% (v/v) D2O in the presence of stepwise additions of CBP KIX (WT or 3mut), TAZ1, or TAZ2, followed by concentration in an Amicon Ultra centrifugal filter with a 3 kDa MWCO (Merck Millipore). Chemical shift assignments of BMAL1 TAD (entry 25280) and CBP KIX (entry 6750) were obtained from the Biological Magnetic Resonance Data Bank (BMRB); CBP KIX assignments at pH 5.5 were transferred to the spectrum at pH 6.5 via a 3-step pH titration. Titration data for protein interactions were analyzed with NMRViewJ (One Moon Scientific) using chemical shift perturbations defined by the equation ΔδTOT = [(Δδ^1H)^2 + (χ(Δδ^15N)^2]^½ and normalized with the scaling factor χ = 0.5[80].

CBP KIX [6] = target: T1, CBP KIX; assay: 15N-1H HSQC NMR titration of 15N CBP KIX with BMAL1 TAD peptides; format: binding; settings: for binding of locked switch peptides to CBP KIX by pattern of CSPs: Fig. 3d
Experimental: as §2

CBP KIX [7] = target: T1, CBP KIX; assay: 15N-1H HSQC NMR titration of 15N BMAL1 TAD L606A/L607A with CBP KIX; format: binding; settings: versus WT TAD with WT KIX
Experimental: as §2

CBP TAZ1 = target: T2, CBP TAZ1 (Mus musculus, UniProt P45481); assay: 15N-1H HSQC NMR titration of 15N BMAL1 TAD L606A/L607A with CBP TAZ1; format: binding; settings: 100 μM 15N TAD L606A/L607A; Fig. 6e,f
T2 construct: Mouse CBP (UniProt P45481) TAZ1 (residues 340–439); made in house; host or cells: Rosetta (DE3) E. coli
Experimental: as §2

CBP TAZ2 = target: T3, CBP TAZ2 (Mus musculus, UniProt P45481, C1776A/C1784A/C1827A/C1828A); assay: 15N-1H HSQC NMR titration of 15N BMAL1 TAD L606A/L607A with CBP TAZ2; format: binding; settings: 100 μM 15N TAD L606A/L607A; Fig. 6g,h
T3 construct: Mouse CBP (UniProt P45481) TAZ2 (residues 1764–1855); MBP; made in house; host or cells: E. coli (BL21)
T3 sequence (P45481 1764-1855 C1776A/C1784A/C1827A/C1828A): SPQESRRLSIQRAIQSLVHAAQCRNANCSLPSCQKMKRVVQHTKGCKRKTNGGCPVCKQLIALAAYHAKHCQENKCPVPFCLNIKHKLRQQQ
Experimental: as §2

T1 sequence (P45481 586-672): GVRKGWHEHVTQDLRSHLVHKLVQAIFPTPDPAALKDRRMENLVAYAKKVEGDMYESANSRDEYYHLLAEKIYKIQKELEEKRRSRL
T2 sequence (P45481 340-439): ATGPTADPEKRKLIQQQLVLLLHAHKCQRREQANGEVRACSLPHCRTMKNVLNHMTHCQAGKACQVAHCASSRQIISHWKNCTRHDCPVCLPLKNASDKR

O=C(Nc1ccc(Cl)cc1)c1cc2ccccc2cc1OP(=O)(O)O [KG-501, naphthol-AS-E-phosphate]
IC50 (CBP KIX [1]; 2 μM CBP KIX bound to 10 nM [5,6] TAMRA-labeled minimal BMAL1 TAD probe, 10 mM MES pH 6.5, 50 mM NaCl, 0.05% Tween-20, mean from 2 replicates done in duplicate, read-out: IC50, displacement of CBP KIX from TAD probe): 222 ± 22.5 µM
Ki (CBP KIX [1]; KD = 2 μM set for the BMAL1 TAD-CBP KIX interaction, read-out: Ki calculated from the Cheng-Prusoff equation): 111 µM
Activation of Per1-luc reporter after forskolin (Fsk) stimulation [2]: moderately decreased potency relative to the others

N#Cc1ccc(NC(=O)c2cc3ccccc3cc2O)cc1 [XX-650–23]
activity in cells relative to KG-501 (CREB): more active in cells
solubility [3]: poor solubility

BMAL1 TAD: recombinant mouse BMAL1 transactivation domain, residues 579–626
Kd (WT CBP KIX; 220–230 μM CBP KIX titrated into 20–25 μM BMAL1 TAD, 10 mM MES pH 6.5, 50 mM NaCl, 25°C, 3 independent runs, one-site model, read-out: KD by ITC): ~2 µM
binding by ITC (in words) [4]: disrupted
reduction of affinity by mutation of the CBP KIX c-Myb site [5]: about 100 fold

FSDLPWAL [P625A switch, trans-locked switch peptide with P625A substitution]
binding of locked switch peptides to CBP KIX by pattern of CSPs (CBP KIX [6]; 100 μM 15N CBP KIX): can bind at the MLL1 site

FSDLPWPL-OH [switch]
KD for the CBP KIX domain estimated by fitting concentration-dependent CSPs (CBP KIX [6]; 100 μM 15N CBP KIX, 10 mM MES pH 6.5, 50 mM NaCl, 25°C, Fig. 3b): hundreds of micromolar
Kd (CBP KIX [6]; 100 μM 15N CBP KIX, 10 mM MES pH 6.5, 50 mM NaCl, 25°C, Fig. 3b, read-out: KD for the CBP KIX domain estimated by fitting concentration-dependent CSPs): > 500 µM

FSDLPWdmPL [P625dmP-switch, cis-locked switch peptide with 5,5-dimethyl L-proline at position 625]
binding of locked switch peptides to CBP KIX by pattern of CSPs (CBP KIX [6]; 100 μM 15N CBP KIX): can bind at the MLL1 site

TAD LL/AA: recombinant BMAL1 TAD (579–626) with L606A/L607A mutation of the IXXLL motif
binding by ITC (in words) (WT CBP KIX; same conditions as WT TAD, Fig. 4e): did not yield any binding heats
reduction of affinity for CBP KIX by mutation in the BMAL1 TAD helix (CBP KIX [7]): about 100 fold
changes of the 15N-1H HSQC spectrum on addition of CBP TAZ1 (CBP TAZ1): almost no changes to the spectrum
interaction with CBP TAZ2 by 15N-1H HSQC (CBP TAZ2): retained interaction

linker-switch: residues 613–626 of mouse BMAL1 (LGGPVDFSDLPWPL)
apparent affinity for CBP KIX relative to the isolated switch peptide (CBP KIX [6]; 100 μM 15N CBP KIX titrated with peptide, Fig. 3a): modestly higher apparent affinity
site of chemical shift perturbations on CBP KIX (CBP KIX [6]; peptide 100 μM, 1:1 stoichiometry with 15N CBP KIX, Fig. 2e): perturbs the MLL1 site
